{"source": "patent US20230202982A1", "about": "“5-CHLORO-4-HYDROXY-1-METHYL-2-OXO-N-PHENYL-QUINOLINE-3-CARBOXAMIDE POTASSIUM SALT FOR TREATING INFLAMMATORY BOWEL DISEASES” (Aqilion AB, priority 2020, published 2023)", "key": {"[1]": {"test": "Solubility in PBS (pH 7.4) and simulated colonic fluid, saturated solutions by HPLC-UV", "assay_type": "physicochemical", "settings": "thermodynamic from solid, saturated solution, ambient temperature", "procedure": "(§1) The solubility and stability at room temperature of Example compound 1 and the free acid compound 5-chloro-4-hydroxy-1-methyl-2-oxo-N-phenyl-quinoline-3-carboxamide (described in Example 1a) above) was determined in PBS (pH 7.4) and in simulated colonic fluid (SCF) at ambient temperature. The SCF was the product FaSSCof obtained from Biorelevant.com prepared according to the manufacturer’s instructions. FaSSCof contains 0.15 mM sodium cholate, 0.3 mM Phospholipids, 0.1 mM Oleate, 120 mM sodium hydroxide, 45 mM TRIS and 76 mM maleate.\n(§2) Saturated solutions were prepared in these solvents and the concentrations/impurity profile was determined by HPLC-UV using a calibration curve in the range of 1 to 150 µg/ml at 300 nm or 320 nm. Visual evaluation was also performed after every step over the testing period."}, "[2]": {"test": "Stability in aqueous solutions (impurity profile by HPLC-UV)", "assay_type": "physicochemical", "settings": "PBS (pH 7.4) and SCF, room temperature, 48 and 72 hours", "procedure": "as §1, §2\nThe samples were also analysed for the presence of impurities. After a period of 48 and 72 hours, all impurities were below the lower limit of quantitation."}, "[3]": {"test": "Thermogravimetric analysis (TGA) and differential scanning calorimetry (DSC)", "assay_type": "physicochemical", "settings": "heating 20° C./min, nitrogen", "procedure": "For the TGA analysis, approximately 5-10 mg of sample of Example Compound 1 was accurately weighed into a pierced Tzero aluminium pan and sealed with a pinhole lid using a crimper. The sample was then loaded into the chamber of a TGA thermal analyser at ambient temperature. A TA Instruments TGA5500 device was used. The sample was then heated at a rate of 20° C./min from 20° C. to 400° C. The purge gas used was nitrogen at a flow rate of 50 cm^3/min.\nFor the DSC analysis, approximately 2 mg of sample was accurately weighed into a pierced Tzero aluminium pan and sealed using a universal crimper. The sample was then loaded into the chamber of a DSC analyser at ambient temperature. A TA Instruments DSC2500 device was used. The sample was then heated at a rate of 20° C./min from 30° C. to 400° C. The purge gas used was nitrogen at a flow rate of 50 cm^3/min"}, "[4]": {"target": "T1, aryl hydrocarbon receptor (AhR) (Mus musculus, UniProt P30561)", "T1 construct": "evaluated in a wild-type (WT) mice; from tissue; host or cells: colon and liver of wild-type mice, in vivo after oral dosing", "T1 sequence (P30561 10-848)": "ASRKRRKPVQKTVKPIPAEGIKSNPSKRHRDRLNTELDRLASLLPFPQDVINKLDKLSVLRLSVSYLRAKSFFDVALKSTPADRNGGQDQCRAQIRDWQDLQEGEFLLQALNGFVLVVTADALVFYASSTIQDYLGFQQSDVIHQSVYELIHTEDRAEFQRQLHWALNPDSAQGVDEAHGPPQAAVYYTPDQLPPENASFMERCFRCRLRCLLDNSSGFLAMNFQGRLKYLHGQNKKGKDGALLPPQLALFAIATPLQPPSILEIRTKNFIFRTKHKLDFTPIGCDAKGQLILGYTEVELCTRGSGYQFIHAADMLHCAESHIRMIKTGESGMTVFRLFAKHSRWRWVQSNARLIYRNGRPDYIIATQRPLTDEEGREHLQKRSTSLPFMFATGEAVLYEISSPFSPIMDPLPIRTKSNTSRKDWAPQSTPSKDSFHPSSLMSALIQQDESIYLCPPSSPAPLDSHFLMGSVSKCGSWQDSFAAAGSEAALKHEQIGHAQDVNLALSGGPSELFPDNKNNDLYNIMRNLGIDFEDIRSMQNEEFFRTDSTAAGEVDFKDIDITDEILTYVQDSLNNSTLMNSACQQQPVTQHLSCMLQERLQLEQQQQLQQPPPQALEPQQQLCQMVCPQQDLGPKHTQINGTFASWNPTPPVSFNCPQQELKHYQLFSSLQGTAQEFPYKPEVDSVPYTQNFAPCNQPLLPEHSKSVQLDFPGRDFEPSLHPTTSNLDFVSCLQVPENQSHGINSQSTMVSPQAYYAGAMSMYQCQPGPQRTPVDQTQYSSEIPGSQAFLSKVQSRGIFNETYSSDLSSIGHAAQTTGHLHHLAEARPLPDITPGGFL", "test": "Activation of AhR in mice after oral administration, qPCR of CYP1A1", "assay_type": "in vivo", "settings": "for Colon CYP1A1 (fold change over untreated), Mean / Liver CYP1A1 (fold change over untreated), Mean: day 14, C57Bl/6 mice", "procedure": "The potential of the 5-chloro-4-hydroxy-1-methyl-2-oxo-N-phenyl-quinoline-3-carboxamide potassium salt (Example compound 1) to activate the aryl hydrocarbon receptor (AhR) in the colon following oral administration was evaluated in a wild-type (WT) mice.\nOn study day 0, animals were weighed and evenly distributed into treatment groups based on body weight.\nOn study day 14, animals were asphyxiated via CO2 inhalation followed by cervical dislocation. The entire colon was removed, collected and prepared for qPCR analysis of CYP1A1 (Normalized to GAPDH & ACTB).\nThe Example compound 1 was formulated as a 0.1 mg/ml, 0.01 mg/ml or 0.001 mg/ml suspension with sodium carboxymethyl cellulose (1%, w/v)."}, "[5]": {"test": "In vivo pharmacokinetic study in rats after oral dosing", "design": "species or system Sprague Dawley rats", "settings": "1 mg/kg oral; for Level in plasma after oral dosing: 15 min to 24 h post dose", "procedure": "An in vivo pharmacokinetic study in rats was performed to determine if 5-chloro-4-hydroxy-1-methyl-2-oxo-N-phenyl-quinoline-3-carboxamide potassium salt (example compound 1) can be absorbed and detected systemically after oral dosing.\n4 male Sprague Dawley rats, approximately 225 g - 250 g at dosing were dosed with 1 mg/kg of Example compound 2 formulated as a 0.1 mg/mL suspension with sodium carboxymethyl cellulose (1%, w/v). Blood samples were taken at 15 min, 30 min, 1 h, 2 h, 4 h, 6 h, 8 hand 24 h post dose\nAt each blood sampling approximately 250 µL blood was sampled in K3EDTA vials and approximately 100 µL plasma was also prepared.\nThe plasma samples were prepared by mixing 50 µL plasma with 250 µL of internal standard solution (20 ng/ml of phenacetin in ACN with 1% formic acid), mixed and centrifuged (20 min, 4000 rpm).\nPlasma samples were transferred to Waters Ostro 96-well plate and drawn through the plate by applying 6-8 psi positive pressure for 10 min. 100 µL of supernatant was further diluted with 50 µL UP water and sample was submitted to analysis.\nThe standard and QC samples were prepared into blank rat colon homogenate and blank rat plasma. Standards were spiked into concentrations 0.1 - 10000 ng/ml of the analytes, QC samples into 3, 30, 300 and 3000 ng/ml, and were otherwise treated as samples."}}, "note": "Read-outs that look alike come from different tables or passages of the source."}
{"smiles": "Cn1c(=O)c(C(=O)Nc2ccccc2)c([O-])c2c(Cl)cccc21.[K+]", "note": "[Example compound 1, 5-chloro-4-hydroxy-1-methyl-2-oxo-N-phenyl-quinoline-3-carboxamide potassium salt]", "values": [{"measurement": "solubility", "setting": "[1]; aqueous buffer, PBS (pH 7.4), read-out: Solubility in PBS (pH7.4)", "value": 0.91, "unit": "µg/mL"}, {"measurement": "solubility", "setting": "[1]; simulated colonic fluid (FaSSCof), fassgf or other biorelevant, SCF (FaSSCof), read-out: Solubility in simulated colonic fluid (SCF)", "value": 7.99, "unit": "µg/mL"}, {"measurement": "Stability in aqueous solution (impurities)", "setting": "[2]", "value": "stable in aqueous solution"}, {"measurement": "Degradation temperature", "setting": "[3]; listed as 5-chloro-4-hydroxy-1-methyl-2-oxo-N-phenyl-quinoline-3-carboxamide potassium sal, potassium salt", "value": 347, "unit": "°C"}, {"measurement": "Degradation temperature", "setting": "[3]; listed as Example Compound 1, potassium salt", "value": "347 °C ±2 °C"}, {"measurement": "Degradation temperature", "setting": "[3]; potassium salt", "value": 347, "unit": "°C"}, {"measurement": "Colon CYP1A1 (fold change over untreated), Mean", "setting": "[4]; 0.01 mg/kg PO QD D0-13, colon", "value": "1.03 fold change over untreated"}, {"measurement": "Liver CYP1A1 (fold change over untreated), Mean", "setting": "[4]; 0.01 mg/kg PO QD D0-13, liver", "value": "1.08 fold change over untreated"}, {"measurement": "Colon CYP1A1 (fold change over untreated), Mean", "setting": "[4]; 0.1 mg/kg PO QD D0-13, colon", "value": "7.42 fold change over untreated"}, {"measurement": "Liver CYP1A1 (fold change over untreated), Mean", "setting": "[4]; 0.1 mg/kg PO QD D0-13, liver", "value": "2.81 fold change over untreated"}, {"measurement": "Colon CYP1A1 (fold change over untreated), Mean", "setting": "[4]; 1.0 mg/kg PO QD D0-13, colon", "value": "8.34 fold change over untreated"}, {"measurement": "Liver CYP1A1 (fold change over untreated), Mean", "setting": "[4]; 1.0 mg/kg PO QD D0-13, liver", "value": "3.44 fold change over untreated"}, {"measurement": "CYP1A1 mRNA expression compared to untreated animals", "setting": "[4]; 1.0 and 0.1 mg/kg oral, WT mice", "value": "significant increase"}, {"measurement": "Level in plasma after oral dosing", "setting": "[5]; FIG. 7, listed as 5-chloro-4-hydroxy-1-methyl-2-oxo-N-phenyl-quinoline-3-carboxamide potassium sal, potassium salt", "value": "absorbed through the intestine into the plasma"}, {"measurement": "Level in plasma after oral dosing", "setting": "[5]; FIG. 7, potassium salt", "value": "detected in the plasma"}, {"measurement": "Clearance from plasma", "setting": "[5]; FIG. 7", "value": "rapidly cleared"}]}
